In assay [1] the test system is MLKL phosphorylation in HT29-L23 human colorectal adenocarcinoma cells. As to the kind of experiment: MLKL Phosphorylation High-Content Assay. Type of assay: cell-based. Conditions: 6 h, necroptosis induced with TNFα, SMAC mimetic and Z-VAD, read-out: pMLKL (IC50). The procedure, abridged:
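HT29-L23 cells pretreated 30 min at 37 °C with compound (6.25 to 0.106 μM final), then necroptosis induced with TNFα 35 ng/mL, SMAC mimetic 700 nM and Z-VAD 140 nM for 6 h. Fixed cells immunostained for MLKL pS358 and imaged; IC50 and Ymax from 4-parameter logistic fit.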

Assay [2] addresses His-GST-TVMV-hRIPK1(1-324) (Homo sapiens (Human), UniProt Q13546). As to the kind of experiment: RIPK1 HTRF Binding Assay. Particulars: HTRF binding, 1 h at rt, read-out: RIPK1 (IC50). The method, boiled down:
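HTRF probe-displacement binding: 1 nM His-GST-TVMV-hRIPK1(1-324) (baculovirus construct), 90.6 nM probe, 0.2 nM anti-GST-Tb in 20 mM HEPES, 10 mM MgCl2, 0.015% Brij-35, 4 mM DTT, 0.05 mg/mL BSA. Incubated 1 h at rt; FRET 520/495 nm ratio, inhibition relative to DMSO-only wells.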
In general terms: In TR-FRET formats the signal depends on donor and acceptor labels being close together.

Structures can show the parent of a compound that is named as a salt. Where two headings read alike, the source gives them in different places.

His-GST-TVMV-hRIPK1(1-324), sequence (Q13546 1-324): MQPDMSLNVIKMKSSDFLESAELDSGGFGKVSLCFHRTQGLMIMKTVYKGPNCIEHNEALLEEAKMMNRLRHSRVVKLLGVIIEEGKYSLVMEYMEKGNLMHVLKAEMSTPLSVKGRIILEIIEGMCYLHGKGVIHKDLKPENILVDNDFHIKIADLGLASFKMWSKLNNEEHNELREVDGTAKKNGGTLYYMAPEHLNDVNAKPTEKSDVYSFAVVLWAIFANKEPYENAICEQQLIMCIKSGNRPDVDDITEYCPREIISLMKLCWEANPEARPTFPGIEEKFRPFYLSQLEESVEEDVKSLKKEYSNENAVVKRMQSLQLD

With `CC(=O)Nc1cn2nc(-c3cc(C(=O)NCC[C@H](O)c4ccc(Cl)cc4)c(C)cc3C)ccc2n1` [Example 383, N-[(3S)-3-(4-chlorophenyl)-3-hydroxypropyl]-5-{2-acetamidoimidazo [1,2-b]pyridazin-6-yl}-2,4-dimethylbenzamide], the IC50 in assay [1] (Homo sapiens) and in assay [2] was 3 nM in each case.

With `CC(=O)Nc1cn2nc(-c3cnc(C)c(C(=O)NCc4cc(F)ccc4OCC4CCCC4)c3)ccc2n1` [Example 218, N-{[2-(cyclopentylmethoxy)-5-fluorophenyl]methyl}-5-{2-acetamidoimidazo[1,2-b]pyridazin-6-yl}-2-methylpyridine-3-carboxamide], the values for the half-inhibitory concentration (IC50) in assay [1] (Homo sapiens) and in assay [2] were 15 nM and 6 nM, respectively.

Regarding `CC(=O)Nc1cn2nc(-c3cnc(Cl)c(C(=O)NC(C)c4cc(C(F)(F)F)ccc4F)c3)ccc2n1` (stereo not shown) [Example 270, 2-chloro-5-{2-acetamidoimidazo[1,2-b]pyridazin-6-yl}-N-{1-[2-fluoro-5-(trifluoromethyl)phenyl]ethyl}pyridine-3-carboxamide], the IC50 turned out to be 204 nM in assay [1] and 23 nM in assay [2].

In the case of `CC(=O)Nc1cn2nc(-c3cnc(C)c(C(=O)NCc4cc(F)cc(F)c4OCC4CCC4)c3)ccc2n1` [Example 210, N-{[2-(cyclobutylmethoxy)-3,5-difluorophenyl]methyl}-5-{2-acetamidoimidazo[1,2-b]pyridazin-6-yl}-2-methylpyridine-3-carboxamide, TFA], the 50% inhibitory concentration (IC50) stood at 5 nM in assay [1] and 3 nM in assay [2].

Take `COc1ncc(-c2ccc3nc(NC(C)=O)cn3n2)cc1C(=O)NCc1cc(F)cc(F)c1OC1COC1` [Example 115, N-{[3,5-difluoro-2-(oxetan-3-yloxy)phenyl]methyl}-5-{2-acetamidoimidazo[1,2-b]pyridazin-6-yl}-2-methoxypyridine-3-carboxamide]: the IC50 turned out to be 65 nM in assay [1] (Homo sapiens) and 12 nM in assay [2].

Take `CC(=O)Nc1cn2nc(-c3cnc(C)c(C(=O)NCc4cc(OC(F)(F)F)ccc4F)c3)ccc2n1` [Example 213, 5-{2-acetamidoimidazo[1,2-b]pyridazin-6-yl}-N-{[2-fluoro-5-(trifluoromethoxy)phenyl]methyl}-2-methylpyridine-3-carboxamide]: the results for the IC50 in assay [1] (Homo sapiens) and in assay [2] were 6 nM and 7 nM, respectively.

With `COc1ncc(-c2ccc3nc(NC(=O)C(C)(C)O)cn3n2)cc1C(=O)NCc1cc(OC(F)(F)F)ccc1F` [Example 36, N-{[2-fluoro-5-(trifluoromethoxy)phenyl]methyl}-5-[2-(2-hydroxy-2-methylpropanamido)imidazo[1,2-b]pyridazin-6-yl]-2-methoxypyridine-3-carboxamide], the values for the IC50 in assay [1] (Homo sapiens) and in assay [2] were 92 nM and 48 nM, respectively.

Turning to `CC(=O)Nc1cn2nc(-c3cncc(C(=O)N[C@H](C)c4cc(OC(F)(F)F)ccc4F)c3)ccc2n1` [Example 235, 5-{2-acetamidoimidazo[1,2-b]pyridazin-6-yl}-N-[(1R)-1-[2-fluoro-5-(trifluoromethoxy)phenyl]ethyl]pyridine-3-carboxamide], the IC50 in assay [1] (Homo sapiens) is 355 nM; in assay [2] it was 345 nM.

On to `CC(=O)Nc1cn2nc(-c3cnc(C)c(C(=O)NCc4cc(-c5cnn(C)c5)ccc4F)c3)ccc2n1` [Example 352, 5-{2-acetamidoimidazo[1,2-b]pyridazin-6-yl}-N-{[2-fluoro-5-(1-methyl-1H-pyrazol-4-yl)phenyl]methyl}-2-methylpyridine-3-carboxamide], for which the IC50 worked out at 394 nM in assay [1] (Homo sapiens) and 125 nM in assay [2].

Regarding `COc1ncc(-c2ccc3nc(NC(C)=O)cn3n2)cc1C(=O)NC(C)c1c(F)cccc1OCC1CC1` (stereo not shown) [Example 124, N-{1-[2-(cyclopropylmethoxy)-6-fluorophenyl]ethyl}-5-{2-acetamidoimidazo[1,2-b]pyridazin-6-yl}-2-methoxypyridine-3-carboxamide, TFA], the IC50 in assay [1] (TFA) was 14 nM; in assay [2] (TFA), 6 nM.

For `COc1ccc(-c2ccc3nc(NC(C)=O)cn3n2)c(F)c1C(=O)NCc1ccccc1OCC1CC1` [Example 377, N-{[2-(cyclopropylmethoxy)phenyl]methyl}-3-{2-acetamidoimidazo [1,2-b]pyridazin-6-yl}-2-fluoro-6-methoxybenzamide], the figures for the 50% inhibitory concentration (IC50) in assay [1] (Homo sapiens) and in assay [2] were 135 nM and 67 nM, respectively.

For the compound `COc1nc(C)c(-c2ccc3nc(NC(C)=O)cn3n2)cc1C(=O)NCc1ccccc1OCC1CCCC1` [Example 316, N-{[2-(cyclopentylmethoxy)phenyl]methyl}-5-{2-acetamidoimidazo[1,2-b]pyridazin-6-yl}-2-methoxy-6-methylpyridine-3-carboxamide], the results for the half-inhibitory concentration (IC50) in assay [1] (Homo sapiens) and in assay [2] were 8 nM and 4 nM, respectively.

Turning to `COc1nc(C)c(-c2ccc3nc(NC(C)=O)cn3n2)cc1C(=O)NCc1c(F)cc(F)cc1OCC1CC1` [Example 298, N-{[2-(cyclopropylmethoxy)-4,6-difluorophenyl]methyl}-5-{2-acetamidoimidazo[1,2-b]pyridazin-6-yl}-2-methoxy-6-methylpyridine-3-carboxamide], the IC50 was determined as 79 nM in assay [1] (Homo sapiens) and 43 nM in assay [2].

For `COc1ncc(-c2ccc3nc(NC(=O)CO)cn3n2)cc1C(=O)NCc1cc(C(F)(F)F)ccc1F` [Example 34, N-{[2-fluoro-5-(trifluoromethyl)phenyl]methyl}-5-[2-(2-hydroxyacetamido)imidazo[1,2-b]pyridazin-6-yl]-2-methoxypyridine-3-carboxamide], the IC50 in assay [1] (Homo sapiens) worked out at 215 nM; in assay [2], 96 nM.

Turning to `COc1nc(C)c(-c2ccc3nc(NC(C)=O)cn3n2)cc1C(=O)NC(C)c1cc(C(F)(F)F)ccc1F` (stereo not shown) [Example 276, 5-{2-acetamidoimidazo[1,2-b]pyridazin-6-yl}-N-{1-[2-fluoro-5-(trifluoromethyl)phenyl]ethyl}-2-methoxy-6-methylpyridine-3-carboxamide], the IC50 in assay [1] was found to be 39 nM; in assay [2], 28 nM.

Regarding “5-{2- acetamidoimidazo[1,2-b]pyridazin- 6-yl}-N-{[2-fluoro-5- (trifluoromethyl)phenyl]methyl}-2- methoxypyridine-3-carboxamide [Example 146]”, the 50% inhibitory concentration (IC50) in assay [1] came to 48 nM; in assay [2], 17 nM.

As for `COc1ncc(-c2ccc3nc(NC(C)=O)cn3n2)cc1C(=O)NCc1cc(OC(F)(F)F)ccc1F` [Example 145, 5-{2-acetamidoimidazo[1,2-b]pyridazin-6-yl}-N-{[2-fluoro-5-(trifluoro-methoxy)phenyl](deutero)methyl}-2-methoxypyridine-3-carboxamide], the results for the IC50 in assay [1] and in assay [2] were 27 nM and 5 nM, respectively.

With `[2H]C([2H])([2H])Oc1nc(C)c(-c2ccc3nc(NC(C)=O)cn3n2)cc1C(=O)NCc1ccc(F)c(F)c1OCC1CC1` [Example 176, N-{[2-(cyclopropylmethoxy)-3,4-difluorophenyl]methyl}-5-{2-acetamidoimidazo[1,2-b]pyridazin-6-yl}-2-(deutero)methoxy-6-methylpyridine-3-carboxamide], the IC50 is 12 nM in assay [1] (Homo sapiens) and 10 nM in assay [2].

As for `COc1nc(C)c(-c2ccc3nc(NC(C)=O)cn3n2)cc1C(=O)NCc1ccccc1OC1CCOC1` (stereo not shown) [Example 306, 5-{2-acetamidoimidazo[1,2-b]pyridazin-6-yl}-2-methoxy-6-methyl-N-{[2-(oxolan-3-yloxy)phenyl]methyl}pyridine-3-carboxamide], the results for the IC50 in assay [1] (Homo sapiens) and in assay [2] were 6 nM and 5 nM, respectively.

`COc1ncc(-c2ccc3nc(NC(C)=O)cn3n2)cc1C(=O)NCc1cc(F)cc(F)c1OC1CC1` [Example 118, N-[(2-cyclopropoxy-3,5-difluorophenyl)methyl]-5-{2-acetamidoimidazo[1,2-b]pyridazin-6-yl}-2-methoxypyridine-3-carboxamide]: the IC50 in assay [1] (Homo sapiens) was 28 nM; in assay [2] it was 2 nM.

Consider `COc1ncc(-c2ccc3nc(NC(=O)C(C)(C)C#N)cn3n2)cc1C(=O)NCc1cc(OC(F)(F)F)ccc1F` [Example 28, 5-[2-(2-cyano-2,2-dimethylacetamido)imidazo[1,2-b]pyridazin-6-yl]-N-{[2-fluoro-5-(trifluoromethoxy)phenyl]methyl}-2-methoxypyridine-3-carboxamide], for which the IC50 in assay [1] (Homo sapiens) came out at 248 nM; in assay [2] it was 285 nM.

As to `[2H]C([2H])(NC(=O)c1cc(-c2ccc3nc(NC(=O)CO)cn3n2)cnc1OC)c1cc(F)cc(F)c1OC1CCOCC1` [Example 2, N-{[3,5-difluoro-2-(oxan-4-yloxy)phenyl](D2)methyl}-5-[2-(2-hydroxyacetamido)imidazo[1,2-b]pyridazin-6-yl]-2-methoxypyridine-3-carboxamide], the IC50 in assay [1] (Homo sapiens) was found to be 4 nM; in assay [2] it was 2 nM.

Turning to `COc1nc(C)c(-c2ccc3nc(NC(C)=O)cn3n2)cc1C(=O)NCc1ccccc1OC(C)C1CCCC1` (stereo not shown) [Example 302, N-{[2-(1-cyclopentylethoxy)phenyl]methyl}-5-{2-acetamidoimidazo[1,2-b]pyridazin-6-yl}-2-methoxy-6-methylpyridine-3-carboxamide], the IC50 in assay [1] was found to be 16 nM; in assay [2], 25 nM.

The term IC50 denotes the concentration that inhibits the measured activity by half.

Values taken from patent publication US11440913B2, “Aminoimidazopyridazines as kinase inhibitors” (BRISTOL-MYERS SQUIBB COMPANY, priority 2017, dated 2022).
